In patent US9333189B2, “Taxane- and taxoid-protein compositions” (ONCBIOMUNE, INC., priority 2010, dated 2016):
Read-outs that look alike come from different tables or passages of the source.

System: MCF-7 cells
Assay: 3H-thymidine incorporation cell growth assay, MCF-7
Format: cell-based, Human
[1] = metal-transferrin without drug, read-out: IC50 of Drugs bound by a Glutaraldehyde Reaction to the Surface of Transferrin (M): No Drug
[2] = daunorubicin bound to metal-transferrin by glutaraldehyde, read-out: IC50 of Drugs bound by a Glutaraldehyde Reaction to the Surface of Transferrin (M): Daunorubicin

Protocol: Human cancer cell lines were obtained from the American Type Culture Collection (Rockville, Md.); the NCI/Adr-Res cell line came from the National Cancer Institute (Bethesda, Md.). The cancer cell lines were maintained in alpha-MEM supplemented with 10% fetal calf serum, 1 mM glutamine and 0.05 mg/mL gentamicin (Life Technologies, Inc., Frederick, Md.) in 5% CO2 at 37° C. Cells were removed from cell culture flask or plate by trypsin-EDTA (0.05% trypsin and 0.53 mM EDTA) digestion.
Cell growth was measured with a ^3[H]-thymidine incorporation assay. Cancer cells were plated into each well of a 96-well cell culture plate as noted in Table 2 (e.g., MCF-7 cells were plated at 3000 cells/well) and incubated overnight. Culture media was replaced with media containing increasing concentrations of transferrin based drugs, and the cells were incubated with these drugs for 3 days. Then, ^3[H]-thymidine (0.1 uCi/well) was added to each well for the last 16 hours of incubation. The cells were removed from the plate by trypsin-EDTA digestion and harvested onto a glass-fiber filter (Skatron basic96 Harvester, Shatron Inc., Sterling, Va.). The radioactivity incorporated into the cellular DNA was determined by liquid scintillation counting (LS 6500, Beckman Co., Fullerton, Calif.). Cell proliferation was quantitated by ^3[H]-thymidine incorporation and expressed as a percentage of the untreated control. The experiments were repeated a minimum of three times independently.

Substance | IC50 [1] | IC50 [2]
Ga-tf: Human transferrin loaded with gallium, no drug | 3.4e-06 M | 
Fe-tf Daunorubicin: Daunorubicin bound by a glutaraldehyde reaction to the surface of iron-transferrin |  | 2.2e-07 M
In-tf Daunorubicin: Daunorubicin bound by a glutaraldehyde reaction to the surface of indium-transferrin |  | 2.7e-08 M
In-tf: Indium-transferrin, no drug | 2.7e-06 M | 
Ga-tf Daunorubicin: Daunorubicin bound by a glutaraldehyde reaction to the surface of gallium-transferrin |  | 3.6e-07 M
